Literature values as cited in patent US20040147461A1, “Motilide compounds” (priority 2000, published 2004).

Assays:
[1] = statement in words
[2] = target: motilin receptor (Homo sapiens, UniProt O43193); details: statement in words
motilin receptor, sequence (O43193 whole entry, species assumed): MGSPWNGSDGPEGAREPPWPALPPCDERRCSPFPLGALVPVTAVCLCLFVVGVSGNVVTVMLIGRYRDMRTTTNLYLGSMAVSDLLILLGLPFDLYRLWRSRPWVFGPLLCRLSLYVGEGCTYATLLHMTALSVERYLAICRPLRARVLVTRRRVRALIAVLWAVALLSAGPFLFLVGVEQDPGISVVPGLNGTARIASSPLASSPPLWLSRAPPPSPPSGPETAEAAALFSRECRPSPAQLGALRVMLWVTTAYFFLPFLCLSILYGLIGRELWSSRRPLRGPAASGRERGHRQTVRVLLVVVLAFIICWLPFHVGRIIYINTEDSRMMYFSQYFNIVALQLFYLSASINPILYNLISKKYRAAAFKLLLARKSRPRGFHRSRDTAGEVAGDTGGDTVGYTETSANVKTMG

SMILES | antimicrobial activity [1] | motilin agonist activity [2]
CC[C@H]1OC(=O)[C@H](C)[C@@H](O[C@H]2C[C@@](C)(OC)[C@@H](O)[C@H](C)O2)[C@H](C)[C@@H](O[C@@H]2O[C@H](C)C[C@H](N(C)C)[C@H]2O)[C@@]2(C)CC(C)=C(O2)[C@H](C)[C@@H](O)[C@]1(C)O [enol ether, 8,9-anhydroerythromycin A 6,9-hemiacetal] | does not also posses antimicrobial activity | 
CC[C@H]1OC(=O)[C@H](C)[C@@H](O[C@H]2C[C@@](C)(OC)[C@@H](O)[C@H](C)O2)[C@H](C)[C@@H](O[C@@H]2O[C@H](C)C[C@H](N(C)C)[C@H]2O)[C@](C)(O)C[C@@H](C)C(=O)[C@H](C)[C@@H](O)[C@]1(C)O [erythromycin A] |  | motilin agonists
